# Source: patent US20210386367A1, “DEVICES AND SYSTEMS FOR GASTROINTESTINAL MICROBIOME DETECTION AND MANIPULATION” (Progenity, Inc., priority 2018, published 2021)
# Read-outs that look alike come from different tables or passages of the source.
# Columns and labels:
# Format in all cases: cell-based
# [1] = system: Bacteroides non fragilis clinical isolates; test: MIC distribution against clinical isolates; details: 29 Bacteroides non-fragilis isolates
# [2] = system: Prevotella spp. clinical isolates; test: MIC distribution against clinical isolates; details: 30 Prevotella spp. isolates
# [3] = system: Streptococcus spp. clinical isolates; test: MIC distribution against clinical isolates; details: 54 Streptococcus spp. isolates
# Source text: (n=19 S. pyogenes, n=20 S. agalactiae and n=20 Viridans group Streptococcus) clinical isolates (μg/mL).
# As used herein, “minimum inhibitory concentration” or “MIC” refers to the lowest concentration of an antimicrobial agent, for example, an antimicrobial agent as described herein, required to inhibit the growth of an organism. […] “MIC90” represents the MIC value at which ≥90% of the strains within a test population are inhibited; the 90th percentile.
# Many susceptibility testing methods are known in the art and can be used as described herein (see, e.g., Jorgensen and Ferraro (2009) Clinical Infectious Diseases 49:1749-1755; and Maurer et al. (2017) Infectious Disease Reports 9:6839; the entire contents of each of the foregoing are incorporated herein by reference). For example, antimicrobial susceptibility can be determined using conventional culture based methods such as the broth or agar dilution test. In these dilution tests, the bacterial isolate of interest is inoculated onto different media that include serial dilutions of an antimicrobial agent, and incubated under appropriate conditions (e.g., overnight at 37° C.) to allow for growth to occur. Following the incubation period, the media is examined to determine bacterial growth. The lowest concentration of antibiotic that prevents growth represents the minimal inhibitory concentration (MIC). Broth dilution tests can be miniaturized and mechanized allowing for reproducibility and high throughput.
# Streptococcus spp. = test: Broth microdilution MIC, 54 clinical isolates; details: for Mode: modal MIC
# Protocol: (§1) Minimal inhibitory concentration (MIC) values were determined by broth microdilution or agar dilution in accordance with guidelines from the Clinical and Laboratory Standards Institute (CLSI; (1) “Methods for Dilution Antimicrobial Susceptibility Tests for Bacteria That Grow Aerobically; Approved Standard; 11th ed.” CLSI standard M07-A11, 2018; (2) “Performance Standards for Antimicrobial Susceptibility Testing; Twenty-Eighth Informational Supplement,” CLSI document M100-S28, 2018; and (3) “Methods for Antimicrobial Susceptibility Testing of Anaerobic Bacteria; Approved Standard—Eighth Edition,” CLSI document M11-A8, 2012).
# (§2) Tested aerobically by broth microdilution: • Escherichia coli, n=50 • Klebsiella spp., n=50 • Pseudomonas aeruginosa, n=50 • Streptococcus spp., n=50 • Staphylococcus aureus, n=50 • Enterococcus faecalis, n=50 • Enterobacter aerogenes, n=50 • Proteus mirabilis, n=50
# (§3) Broth microdilution testing of aerobic bacteria was conducted in cation-adjusted Mueller Hinton broth (MHBII). For testing streptococci, lysed horse blood (LHB) was added to MHBII broth at a final concentration of 3%. Where LHB was used, it was added after filtering.
# (§4) Broth microdilution susceptibility testing in 96-well microplates was conducted in accordance with CLSI methods (1) and (2). Automated liquid handlers were used to conduct serial dilutions and liquid transfers, including the Multidrop 384 (Labsystems, Helsinki, Finland), Biomek 2000, and the Biomek FX (Beckman Coulter, Fullerton, Calif.). All wells in columns 2 through 12 of a standard 96-well microdilution plate (Costar 3795) were filled with 150 μL of the appropriate diluent. Then, 300 μL of the test agents were added to the wells of column 1 of the plates at 100× the highest final concentration to be tested. Serial two-fold dilutions were made across the rows through column 11 using the Biomek 2000. The wells of column 12 contained no drug and served as the growth control wells. This plate served as the “mother plate” from which MIC assay plates or “daughter plates” were made.
# (§5) The daughter plates were loaded with 190 μL per well of the appropriate medium using the Multidrop 384. The daughter plates were created using the Biomek FX which transferred 2 μL of drug solution from each well of a mother plate to each corresponding well of the daughter plate in a single step. A standardized inoculum of each test organism was prepared per CLSI methods (1) to equal a 0.5 McFarland standard, followed by a dilution of 1:20 for aerobes and 1:10 for anaerobes. The plates were then inoculated with 10 μL of the diluted inoculum using the Biomek 2000 from low to high drug concentration, resulting in a final concentration of approximately 5×10^5 CFU/mL per well. An un-inoculated plate was incubated in parallel for each medium for the purpose of assessing solubility of the drug in the test media.
# (§6) Inoculated plates were stacked 3 or 4 high, covered with a sterile lid on the top plate, placed into boxes with CO2 planchets (streptococci) or plastic bags (all other isolates). Plates were incubated at 35° C. for 16-24 hr in ambient air for aerobes or for 42-48 hr in the anaerobic environment of the Bactron II anaerobe chamber (Sheldon Manufacturing Co.; Cornelius, Oreg.). Following incubation, the microplates were removed from the incubator and viewed from the bottom using a plate viewer. The MIC values were read and recorded as the lowest concentration of drug that inhibited visible growth of the organism as per CLSI methods (1) and (2).
# Streptococcus pyogenes = test: Broth microdilution MIC, 19 clinical isolates
# Protocol: as §1, §2, §3, §4, §5, §6
# Streptococcus agalactiae = test: Broth microdilution MIC, 20 clinical isolates; details: for Mode: modal MIC
# Protocol: as §1, §2, §3, §4, §5, §6
# [4] = 54 Streptococcus spp. clinical isolates
# [5] = 20 Streptococcus agalactiae clinical isolates
smiles,measurement,setting,value
Cc1ncc([N+](=O)[O-])n1CCO [MTZ],Cumulative percentage of isolates inhibited at MIC,[1]; MIC 0.5 μg/mL,55.2%
same,Number of test isolates at MIC,[1]; MIC 0.5 μg/mL,12
same,Cumulative percentage of isolates inhibited at MIC,[1]; MIC 1 μg/mL,75.9%
same,Number of test isolates at MIC,[1]; MIC 1 μg/mL,6
same,Cumulative percentage of isolates inhibited at MIC,[1]; MIC 2 μg/mL,96.6%
same,Number of test isolates at MIC,[1]; MIC 2 μg/mL,6
same,Cumulative percentage of isolates inhibited at MIC,[1]; MIC >16 μg/mL,100.0%
same,Number of test isolates at MIC,[1]; MIC >16 μg/mL,1
same,Cumulative percentage of isolates inhibited at MIC,[2]; MIC 0.5 μg/mL,46.7%
same,Number of test isolates at MIC,[2]; MIC 0.5 μg/mL,8
same,Cumulative percentage of isolates inhibited at MIC,[2]; MIC 1 μg/mL,76.7%
same,Number of test isolates at MIC,[2]; MIC 1 μg/mL,9
same,Cumulative percentage of isolates inhibited at MIC,[2]; MIC 4 μg/mL,83.3%
same,Number of test isolates at MIC,[2]; MIC 4 μg/mL,2
same,Cumulative percentage of isolates inhibited at MIC,[2]; MIC 8 μg/mL,96.7%
same,Number of test isolates at MIC,[2]; MIC 8 μg/mL,4
same,Cumulative percentage of isolates inhibited at MIC,[2]; MIC >32 μg/mL,100.0%
same,Number of test isolates at MIC,[2]; MIC >32 μg/mL,1
COc1c(N2C[C@@H]3CCCN[C@@H]3C2)c(F)cc2c(=O)c(C(=O)O)cn(C3CC3)c12 [moxifloxacin],Cumulative percentage of isolates inhibited at MIC,[3]; MIC 0.06 μg/mL,24.1%
same,Number of test isolates at MIC,[3]; MIC 0.06 μg/mL,13
same,Cumulative percentage of isolates inhibited at MIC,[3]; MIC 0.5 μg/mL,90.7%
same,Number of test isolates at MIC,[3]; MIC 0.5 μg/mL,1
same,Cumulative percentage of isolates inhibited at MIC,[3]; MIC 2 μg/mL,94.4%
same,Number of test isolates at MIC,[3]; MIC 2 μg/mL,2
same,Cumulative percentage of isolates inhibited at MIC,[3]; MIC 4 μg/mL,98.1%
same,Number of test isolates at MIC,[3]; MIC 4 μg/mL,2
same,Cumulative percentage of isolates inhibited at MIC,[3]; MIC 8 μg/mL,100.0%
same,Number of test isolates at MIC,[3]; MIC 8 μg/mL,1
same,MIC range,Streptococcus spp.; [4],0.06 to 8 µg/mL
same,MIC50,"Streptococcus spp.; 54 Streptococcus spp. clinical isolates, read-out: MIC50",0.12 µg/mL
same,MIC90,"Streptococcus spp.; 54 Streptococcus spp. clinical isolates, read-out: MIC90",0.5 µg/mL
same,Mode,Streptococcus spp.; [4],0.12 µg/mL
same,MIC range,Streptococcus pyogenes,0.06 to 0.5 µg/mL
same,Mode,Streptococcus pyogenes,0.12 µg/mL
same,MIC50,"Streptococcus pyogenes; Streptococcus pyogenes, read-out: MIC50",0.12 µg/mL
same,MIC90,"Streptococcus pyogenes; Streptococcus pyogenes, read-out: MIC90",0.25 µg/mL
same,MIC range,Streptococcus agalactiae; [5],0.06 to 0.25 µg/mL
same,MIC50,"Streptococcus agalactiae; 20 Streptococcus agalactiae clinical isolates, read-out: MIC50",0.12 µg/mL
same,MIC90,"Streptococcus agalactiae; 20 Streptococcus agalactiae clinical isolates, read-out: MIC90",0.12 µg/mL
same,Mode,Streptococcus agalactiae; [5],0.12 µg/mL
CO[C@H]1/C=C/O[C@@]2(C)Oc3c(C)c(O)c4c(O)c(c5c(nc6cc(C)ccn65)c4c3C2=O)NC(=O)/C(C)=C\C=C\[C@H](C)[C@H](O)[C@@H](C)[C@@H](O)[C@@H](C)[C@H](OC(C)=O)[C@@H]1C [rifaximin],Number of test isolates at MIC,[1]; MIC […],12
same,Number of test isolates at MIC,[1]; MIC ≤0.03 μg/mL,3
same,Cumulative percentage of isolates inhibited at MIC,[2]; MIC 32 μg/mL,100.0%
same,Number of test isolates at MIC,[2]; MIC 32 μg/mL,1
same,Number of test isolates at MIC,[2]; MIC […],12
same,MIC50,Streptococcus spp.,0.12 µg/mL
same,MIC90,Streptococcus spp.,0.25 µg/mL
same,MIC50,Streptococcus spp.; [4],0.12 µg/mL
same,MIC90,Streptococcus spp.; [4],0.25 µg/mL
same,MIC range,Streptococcus spp.; [4],0.015 to 0.3 µg/mL
same,Mode,Streptococcus spp.; [4],0.12 µg/mL
same,MIC50,Streptococcus pyogenes,0.06 µg/mL
same,MIC90,Streptococcus pyogenes,0.25 µg/mL
same,MIC range,Streptococcus pyogenes,0.015 to 0.25 µg/mL
same,Mode,Streptococcus pyogenes,0.06 µg/mL
same,MIC50,Streptococcus agalactiae,0.12 µg/mL
same,MIC90,Streptococcus agalactiae,0.12 µg/mL
same,MIC50,Streptococcus agalactiae; [5],0.12 µg/mL
same,MIC90,Streptococcus agalactiae; [5],0.12 µg/mL
same,MIC range,Streptococcus agalactiae; [5],0.12 to 0.25 µg/mL
same,Mode,Streptococcus agalactiae; [5],0.12 µg/mL
